Columns and labels:
[1] = system: H358; experiment: Anti-proliferation 2D CTG test (H358); assay type: cell-based; details: H358 cells, 1500 cells/well, 5 days incubation with compound, CTG readout
Procedure, shortened: (§1)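 H358 (1500 cells/well) and MIA PaCa-2 (500 cells/well) seeded overnight, then treated 5 days at 37 °C with 10-point 1:3 dilutions, top final […], 0.5% DMSO. Viability by CellTiter-Glo luminescence; IC50 from four-parameter fit normalized to plate controls.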

[2] = system: MIA PaCa-2; experiment: Anti-proliferation 2D CTG test (MIA PaCa-2); assay type: cell-based; details: MIAPACA-2 cells, 500 cells/well, 5 days incubation with compound, CTG readout
Procedure, shortened: as §1

[3] = Homo sapiens, MIA PaCa-2, 120 h

Row | SMILES | IC50 [1] | IC50 [2] | IC50 ([1]; Homo sapiens, NCI-H358, 120 h) | IC50 [2, 3]
1 | C=CC(=O)N1CCN(c2nc(=O)n3c4nc(c(F)cc24)-c2c(F)cccc2OCC(OC(C)C)C(O)c2ccnc(C(C)C)c2-3)[C@@H](C)C1 (stereo partly drawn) [Example 56, (S)-2^4-((S)-4-acryloyl-2-methylpiperazin-1-yl)-6-isopropoxy-2^6,3^6-difluoro-7-hydroxy-1^2-isopropyl-2^1,2^2-dihydro-4-oxa-2(1,7)-pyrido[2,3-d]pyrimidina-1(3,4)-pyridina-3(1,2)-benzocycloheptane-2^2-one] | 221 nM | 218 nM | – | –
2 | C=CC(=O)N1C[C@H](C)N(c2nc(=O)n3c4nc(c(F)cc24)-c2c(F)cccc2OCC(O)C(OCC)c2ccnc(C(C)C)c2-3)C[C@H]1C (stereo partly drawn) [Example 57, (R)-2^4-((2S,5R)-4-acryloyl-2,5-dimethylpiperazin-1-yl)-7-ethoxy-2^6,3^6-difluoro-6-hydroxy-1^2-isopropyl-2^1,2^2-dihydro-4-oxa-2(1,7)-pyrido[2,3-d]pyrimidina-1(3,4)-pyridina-3(1,2)-benzocycloheptane-2^2-one] | 35 nM | 18 nM | – | –
3 | C=CC(=O)N1C[C@H](C)N(c2nc(=O)n3c4nc(c(F)cc24)-c2c(F)cccc2OCC(O)C(OCC)c2ccnc(C(C)C)c2-3)C[C@H]1C (stereo partly drawn) [Example 58, (S)-2^4-((2S,5R)-4-acryloyl-2,5-dimethylpiperazin-1-yl)-7-ethoxy-2^6,3^6-difluoro-6-hydroxy-1^2-isopropyl-2^1,2^2-dihydro-4-oxa-2(1,7)-pyrido[2,3-d]pyrimidina-1(3,4)-pyridina-3(1,2)-benzocycloheptane-2^2-one] | 461 nM | 314 nM | – | –
4 | C=CC(=O)N1CCN(c2nc(=O)n3c4nc(c(F)cc24)-c2c(F)cccc2OCC(OC)C(OC)c2ccnc(C(C)C)c2-3)[C@@H](C)C1 (stereo partly drawn) [Example 59, 2^4-((S)-4-acryloyl-2-methylpiperazin-1-yl)-2^6,3^6-difluoro-1^2-isopropyl-6,7-dimethoxy-2^1,2^2-dihydro-4-oxa-2(1,7)-pyrido[2,3-d]pyrimidina-1(3,4)-pyridina-3(1,2)-benzocycloheptane-2^2-one] | – | – | 23 nM | 9 nM
5 | C=CC(=O)N1CCN(c2nc(=O)n3c4nc(c(F)cc24)-c2c(F)cccc2OCC(OCC)C(OCC)c2ccnc(C(C)C)c2-3)[C@@H](C)C1 (stereo partly drawn) [Example 60, 2^4-((S)-4-acryloyl-2-methylpiperazin-1-yl)-6,7-diethoxy-2^6,3^6-difluoro-1^2-isopropyl-2^1,2^2-dihydro-4-oxa-2(1,7)-pyrido[2,3-d]pyrimidina-1(3,4)-pyridina-3(1,2)-benzocycloheptane-2^2-one] | – | – | 45 nM | 38 nM
6 | C=CC(=O)N1CCN(c2nc(=O)n3c4nc(c(F)cc24)-c2c(F)cccc2OCC(OCCF)C(OCCF)c2ccnc(C(C)C)c2-3)[C@@H](C)C1 (stereo partly drawn) [Example 61, 2^4-((S)-4-acryloyl-2-methylpiperazin-1-yl)-2^6,3^6-difluoro-6,7-di(2-fluoroethoxy)-1^2-isopropyl-2^1,2^2-dihydro-4-oxa-2(1,7)-pyrido[2,3-d]pyrimidina-1(3,4)-pyridina-3(1,2)-benzocycloheptane-2^2-one] | – | – | 38 nM | 16 nM
7 | C=CC(=O)N1CCN(c2nc(=O)n3c4nc(c(F)cc24)-c2c(F)cccc2OCC2OC(=O)OC2c2ccnc(C(C)C)c2-3)[C@@H](C)C1 (stereo partly drawn) [Example 62, 11-((S)-4-acryloyl-2-methylpiperazin-1-yl)-15,21-difluoro-7-isopropyl-3a,20a-dihydro-9H,20H-12,14-(epiethane[1,2]diylidene)benzo[b][1,3]dioxazolo[4,5-j]pyrido[3,4-h]pyrimido[6,1-f][1]oxa[5,7]diazacyclodidecyne-2,9-dione] | – | – | 20 nM | 16 nM
8 | C=CC(=O)N1CCN(c2nc(=O)n3c4nc(c(F)cc24)-c2c(F)cccc2OCC2OC(C)(C)OC2c2ccnc(C(C)C)c2-3)[C@@H](C)C1 (stereo partly drawn) [Example 63, 11-((S)-4-acryloyl-2-methylpiperazin-1-yl)-15,21-difluoro-7-isopropyl-2,2-dimethyl-3a,20a-dihydro-9H,20H-12,14-(eiethane[1,2]diylidene)benzo[b][1,3]dioxazolo[4,5-j]pyrido[3,4-h]pyrimido[6,1-f][1]oxa[5,7]diazacyclododecin-9-one] | – | – | 4 nM | 4 nM
9 | C=CC(=O)N1C[C@H](C)N(c2nc(=O)n3c4nc(c(F)cc24)-c2c(ccc(Cl)c2F)OCC(O)C(O)c2ccnc(C(C)C)c2-3)C[C@H]1C (stereo partly drawn) [Example 65, (R)-2^4-((2S,5R)-4-acryloyl-2,5-dimethylpiperazin-1-yl)-3^5-chloro-2^6,3^6-difluoro-6,7-dihydroxy-1^2-isopropyl-2^1,2^2-dihydro-4-oxa-2(1,7)-pyrido[2,3-d]pyrimidina-1(3,4)-pyridina-3(1,2)-benz ocycloheptane-2^2-one] | – | – | 1 nM | 1 nM
10 | C=CC(=O)N1CCN(c2nc(=O)n3c4nc(c(F)cc24)-c2c(ccc(Cl)c2F)OCC(O)C(O)c2ccnc(C(C)C)c2-3)[C@@H](C)C1 (stereo partly drawn) [Example 66, (R)-2^4-((S)-4-acryloyl-2-methylpiperazin-1-yl)-3^5-chloro-2^6,3^6-difluoro-6,7-dihydroxy-1^2-isopropyl-2^1,2^2-dihydro-4-oxa-2(1,7)-pyrido[2,3-d]pyrimidina-1(3,4)-pyridina-3(1,2)-benzocycloheptane-2^2-one] | 5 nM | 3 nM | – | –
11 | C=CC(=O)N1CCN(c2nc(=O)n3c4nc(c(F)cc24)-c2c(ccc(Cl)c2F)OCC(O)C(O)c2ccnc(C(C)C)c2-3)[C@@H](C)C1 (stereo partly drawn) [Example 67, (S)-2^4-((S)-4-acryloyl-2-methylpiperazin-1-yl)-3^5-chloro-2^6,3^6-difluoro-6,7-dihydroxy-1^2-isopropyl-2^1,2^2-dihydro-4-oxa-2(1,7)-pyrido[2,3-d]pyrimidina-1(3,4)-pyridina-3(1,2)-benzocycloheptane-2^2-one] | 1320 nM | 859 nM | – | –
12 | C=CC(=O)N1CCN(c2nc(=O)n3c4nc(c(F)cc24)-c2c(ccc(Cl)c2F)OCC(O)C(OCC)c2ccnc(C(C)C)c2-3)[C@@H](C)C1 (stereo partly drawn) [Example 68, 2^4-((S)-4-acryloyl-2-methylpiperazin-1-yl)-3^5-chloro-7-ethoxy-2^6,3^6-difluoro-6-hydroxy-1^2-isopropyl-2^1,2^2-dihydro-4-oxa-2(1,7)-pyrido[2,3-d]pyrimidina-1(3,4)-pyridina-3(1,2)-benzocycloheptane-2^2-one] | 27 nM | 22 nM | – | –
13 | C=CC(=O)N1CCN(c2nc(=O)n3c4nc(c(F)cc24)-c2c(ccc(Cl)c2F)OCC(OCC)C(O)c2ccnc(C(C)C)c2-3)[C@@H](C)C1 (stereo partly drawn) [Example 69, 2^4-((S)-4-acryloyl-2-methylpiperazin-1-yl)-3^5-chloro-6-ethoxy-2^6,3^6-difluoro-7-hydroxy-1^2-isopropyl-2^1,2^2-dihydro-4-oxa-2(1,7)-pyrido[2,3-d]pyrimidina-1(3,4)-pyridina-3(1,2)-benzocycloheptane-2^2-one] | 31 nM | 26 nM | – | –
14 | C=CC(=O)N1C[C@H](C)N(c2nc(=O)n3c4nc(c(F)cc24)-c2c(ccc(Cl)c2F)OCC(O)C(OCC)c2ccnc(C(C)C)c2-3)C[C@H]1C (stereo partly drawn) [Example 70, 2^4-((2S,5R)-4-acryloyl-2,5-dimethylpiperazin-1-yl)-3^5-chloro-7-ethoxy-2^6,3^6-difluoro-6-hydroxy-1^2-isopropyl-2^1,2^2-dihydro-4-oxa-2(1,7)-pyrido[2,3-d]pyrimidina-1(3,4)-pyridina-3(1,2)-benzocycloheptane-2^2-one] | 16 nM | 7 nM | – | –
